{"source": "patent US5082980A", "about": "(Case Western Reserve University, priority 1990, dated 1992)", "key": {"[1]": {"test": "Sterility and pyrogen status of the injectable product", "settings": "patient-ready product"}, "cerebral blood flow": {"system": "cerebral blood flow", "settings": "areas of high flow rate; limitation of water extraction in the brain tissue; cited from earlier work"}, "[2]": {"test": "Toxic doses / physiological effects of the non-radioactive impurities", "settings": "quantity present in product, Table I"}}, "data": [{"smiles": "CCCC[15OH]", "note": "[^15 O labeled butanol]", "values": [{"measurement": "sterility and pyrogen status", "setting": "[1]", "result": "sterile and pyrogen-free"}]}, {"smiles": "[15OH2]", "note": "[^15 O labeled water]", "values": [{"measurement": "cerebral blood flow measurement, deviation", "setting": "cerebral blood flow", "result": "underestimation of cerebral blood flow in areas of high flow rate"}]}, {"smiles": "OB(O)O", "note": "[boric acid]", "values": [{"measurement": "quantity in the product relative to quantities with observed physiological effects", "setting": "[2]", "result": "well below any quantity which has been observed to have any physiological effects"}]}]}
